# Target: T1, HEK cells stably transfected with tetracycline inducible hNR1 and hNR2A (Homo sapiens, UniProt Q05586+Q12879)
# T1 construct: expressed in transfected cells; host or cells: HEK cells, stably transfected, tetracycline/doxycycline inducible
# Assay: Assay 1: Cell-Based Assay, cytosolic calcium response to positive allosteric modulators (with 30 μM glycine and 300 nM L-glutamate, EC30)
# Settings: Table 2; cytosolic calcium response, with 30 μM glycine and 300 nM L-glutamate (EC30); — = no plateau was reached
# Summary of the method: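 Cells induced 24 h with 7.5 μg mL^−1 doxycycline plus 500 μM (+)-ketamine, loaded 60 min at 37 °C with calcium dye in Mg-free HBSS (1.8 mM Ca, probenecid, 10 μM (+)-ketamine, pH 7.15). Peak RFU over 5 min after compound addition, scaled to 100 μM L-glutamate (100%) and 0 μM (0%); four-parameter Hill fit for EC50, max % if no plateau.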
# T1 sequence (Q12879 23-1464, other chains not shown): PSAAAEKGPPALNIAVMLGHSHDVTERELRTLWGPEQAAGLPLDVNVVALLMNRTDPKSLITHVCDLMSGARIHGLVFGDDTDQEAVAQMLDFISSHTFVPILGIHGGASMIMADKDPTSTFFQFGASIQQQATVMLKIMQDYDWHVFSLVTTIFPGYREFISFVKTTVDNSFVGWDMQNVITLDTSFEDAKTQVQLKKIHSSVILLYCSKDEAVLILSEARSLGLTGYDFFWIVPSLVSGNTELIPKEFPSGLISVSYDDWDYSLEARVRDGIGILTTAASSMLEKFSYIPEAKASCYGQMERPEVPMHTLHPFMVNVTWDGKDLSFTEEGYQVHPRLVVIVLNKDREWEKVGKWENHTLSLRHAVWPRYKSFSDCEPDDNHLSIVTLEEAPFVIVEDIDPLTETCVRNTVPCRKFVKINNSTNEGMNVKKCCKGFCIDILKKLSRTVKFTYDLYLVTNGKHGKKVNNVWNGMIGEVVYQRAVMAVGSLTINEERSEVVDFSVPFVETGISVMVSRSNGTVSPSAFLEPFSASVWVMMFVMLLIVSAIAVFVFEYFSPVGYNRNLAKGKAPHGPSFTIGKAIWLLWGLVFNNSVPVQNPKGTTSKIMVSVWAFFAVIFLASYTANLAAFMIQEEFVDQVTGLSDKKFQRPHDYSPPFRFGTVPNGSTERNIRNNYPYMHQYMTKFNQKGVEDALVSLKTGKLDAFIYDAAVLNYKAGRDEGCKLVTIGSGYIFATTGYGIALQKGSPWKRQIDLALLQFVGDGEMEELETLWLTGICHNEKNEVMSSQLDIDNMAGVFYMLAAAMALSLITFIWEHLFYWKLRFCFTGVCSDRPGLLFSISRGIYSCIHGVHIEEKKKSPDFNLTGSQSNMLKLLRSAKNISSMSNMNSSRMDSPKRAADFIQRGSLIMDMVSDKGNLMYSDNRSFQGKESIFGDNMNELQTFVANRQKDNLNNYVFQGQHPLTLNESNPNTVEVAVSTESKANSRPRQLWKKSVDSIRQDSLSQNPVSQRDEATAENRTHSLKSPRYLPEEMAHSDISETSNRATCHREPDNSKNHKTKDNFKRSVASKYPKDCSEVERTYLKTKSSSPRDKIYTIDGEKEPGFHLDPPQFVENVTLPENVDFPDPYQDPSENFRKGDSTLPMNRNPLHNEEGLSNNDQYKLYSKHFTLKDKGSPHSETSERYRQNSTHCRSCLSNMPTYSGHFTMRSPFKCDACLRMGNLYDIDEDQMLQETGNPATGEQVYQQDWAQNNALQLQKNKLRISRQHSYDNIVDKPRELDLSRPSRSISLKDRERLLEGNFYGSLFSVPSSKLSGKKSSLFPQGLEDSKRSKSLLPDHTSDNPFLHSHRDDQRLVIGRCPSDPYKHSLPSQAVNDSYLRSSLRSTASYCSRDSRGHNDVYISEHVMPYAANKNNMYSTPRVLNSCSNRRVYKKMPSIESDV
row,EC50,Compound
1,44500 nM,"Cc1sc2nc(Cc3cccc(C(F)(F)F)c3F)cc(=O)n2c1CO [Example 27.14, 7-(2-fluoro-3-(trifluoromethyl)benzyl)-3-(hydroxymethyl)-2-methyl-5H-thiazolo[3,2-a]pyrimidin-5-one]"

# Same assay, conditions: Table 3; cytosolic calcium response, with 30 μM glycine and 300 nM L-glutamate (EC30); — = no plateau was reached
row,Compound,EC50
1,Cc1sc2nc(Cn3nc(C(F)(F)F)cc3Cl)cc(=O)n2c1C(C)C#N (stereo not drawn) [Example 251A],2620 nM
2,"CCNC(=O)c1c(C)sc2nc(Cc3c(F)ccc(F)c3F)cc(=O)n12 [compound 2, N-ethyl-2-methyl-5-oxo-7-[(2,3,6-trifluorophenyl)methyl]thiazolo[3,2-a]pyrimidine-3-carboxamide]",33700 nM
3,"Cc1sc2nc(Cc3cccc(C#N)c3F)cc(=O)n2c1-c1ncco1 [compound 3, 2-fluoro-3-[(2-methyl-3-oxazol-2-yl-5-oxo-thiazolo[3,2-a]pyrimidin-7-yl)methyl]benzonitrile]",10900 nM
4,"CCNC(=O)c1c(C)sc2nc(Cc3cccc(Cl)c3F)c(F)c(=O)n12 [compound 8, 7-[(3-chloro-2-fluoro-phenyl)methyl]-N-ethyl-6-fluoro-2-methyl-5-oxo-thiazolo[3,2-a]pyrimidine-3-carboxamide]",2550 nM
5,"CNC(=O)c1c(C)sc2nc(Cc3cc(F)c(F)cc3OC)cc(=O)n12 [compound 9, 7-[(4,5-difluoro-2-methoxy-phenyl)methyl]-N,2-dimethyl-5-oxo-thiazolo[3,2-a]pyrimidine-3-carboxamide]",8040 nM
6,"CNC(=O)Cc1c(C)sc2nc(Cc3cccc(C4CC4)c3F)cc(=O)n12 [compound 11, 2-[7-[(3-cyclopropyl-2-fluoro-phenyl)methyl]-2-methyl-5-oxo-thiazolo[3,2-a]pyrimidin-3-yl]-N-methyl-acetamide]",1140 nM
7,"CCNC(=O)c1c(C)sc2nc(Cc3cccc(C(F)(F)F)c3F)c(F)c(=O)n12 [compound 13, N-ethyl-6-fluoro-7-[[2-fluoro-3-(trifluoromethyl)phenyl]methyl]-2-methyl-5-oxo-thiazolo[3,2-a]pyrimidine-3-carboxamide]",858 nM

# Other lines, results leading:
row,EC50,Compound
1,15100 nM,"CCNC(=O)c1c(C)sc2nc(Cc3cccc(OC)c3F)cc(=O)n12 [compound 5, N-ethyl-7-[(2-fluoro-3-methoxy-phenyl)methyl]-2-methyl-5-oxo-thiazolo[3,2-a]pyrimidine-3-carboxamide]"
2,9730 nM,"CNC(=O)Cc1c(C)sc2nc(Cc3cccc(Cl)c3F)cc(=O)n12 [compound 7, 2-[7-[(3-chloro-2-fluoro-phenyl)methyl]-2-methyl-5-oxo-thiazolo[3,2-a]pyrimidin-3-yl]-N-methyl-acetamide]"
3,3880 nM,"CCNC(=O)c1c(C)sc2nc(Cc3cc(C#N)cc(C4CC4)c3F)cc(=O)n12 [compound 4, 7-[(5-cyano-3-cyclopropyl-2-fluoro-phenyl)methyl]-N-ethyl-2-methyl-5-oxo-thiazolo[3,2-a]pyrimidine-3-carboxamide]"
4,2050 nM,"Cc1sc2nc(Oc3cccc(C(F)(F)F)c3)cc(=O)n2c1C1CC1CO (stereo not drawn) [compound 12, 3-[2-(Hydroxymethyl)cyclopropyl]-2-methyl-7-[3-(trifluoromethyl)phenoxy]thiazolo[3,2-a]pyrimidin-5-one]"
5,932 nM,"CNC(=O)c1c(C)sc2nc(Cc3cccc(C4CC4)c3F)cc(=O)n12 [compound 1, 7-[(3-cyclopropyl-2-fluoro-phenyl)methyl]-N,2-dimethyl-5-oxo-thiazolo[3,2-a]pyrimidine-3-carboxamide]"
6,753 nM,"CNC(=O)c1c(C)sc2nc(Cc3cccc(C4CC4)c3F)c(F)c(=O)n12 [compound 6, 7-[(3-cyclopropyl-2-fluoro-phenyl)methyl]-6-fluoro-N,2-dimethyl-5-oxo-thiazolo[3,2-a]pyrimidine-3-carboxamide]"
7,471 nM,"Cc1sc2nc(Cc3cccc(C#N)c3F)cc(=O)n2c1C1CC1C (stereo not drawn) [compound 10, 2-fluoro-3-[[2-methyl-3-(2-methylcyclopropyl)-5-oxo-thiazolo[3,2-a]pyrimidin-7-yl]methyl]benzonitrile]"
